These results are taken from US20240408216A1, “PROTEIN INHIBITOR OR DEGRADING AGENT, PHARMACEUTICAL COMPOSITION CONTAINING SAME AND PHARMACEUTICAL USE” (JING MEDICINE TECHNOLOGY (SHANGHAI) LTD., priority 2021, published 2024).

The first experiment relates to BaF3 (EGFR L858R/T790M/C797S). The experiment is described as follows: Cell proliferation IC50 assay (Cell Titer GLO), BaF3 LTC cells. The format is cell-based. The following applies: Mus musculus, Ba/F3 EGFR, Table 6, 72 h. As for the experimental part:
(§1) IC50 of compounds in the present invention was determined by Cell Titer GLO reagent from Promega. The procedures are as follows:
(§2) Tumor cells were cultured in specified medium in an incubator at 37° C. and 5% CO2. The cells were passaged periodically. Cells at the logarithmic growth phase were collected for plating at a density of 2000-4000 cells/well. The next day, the compounds of the present invention were serially diluted and added to the cells, with DMSO being the negative control and the culture media without cells being the blank control. The plate was incubated in the incubator for 72 h. The cell viability assay was performed by adding the detection reagents to the cell culture media according to Cell Titer GLO reagent instructions and detecting luminescent signals on an EnVision microplate reader (PerkinElmer).
(§3) Inhibition of cell growth by the compounds of the present invention was plotted by Prism Graphpad software for statistically calculating the IC50 of the compound of the present invention.
Background: ATP-based viability assays read luminescence as a measure of living cells.
A word on the IC50: it is the point on the concentration scale where inhibition reaches its midpoint. `CCc1cc(Nc2ncc(Cl)c(Nc3ccccc3P(C)(C)=O)n2)c(OC)cc1N1CCC(N2Cc3cc(Oc4cccc5c4CN(C4CCC(=O)NC4=O)C5=O)ccc3C2=O)CC1` (centres unmarked) [Example E211] displayed an IC50 of 0.0592 µM.

Consider `CCc1cc(Nc2ncc(-c3cnn(C)c3)c(Nc3ccccc3P(C)(C)=O)n2)c(OC)cc1N1CCC(N2CCN(CCOc3cc(F)cc4c3CN(C3CCC(=O)NC3=O)C4=O)CC2)CC1` (centres unmarked) [Example E194], for which the IC50 is above 4 µM.

The compound `CCc1cc(Nc2ncc(Cl)c(Nc3ccccc3P(C)(C)=O)n2)c(OC)cc1N1CCC(N2CCC3(CC(Oc4cccc5c4CN(C4CCC(=O)NC4=O)C5=O)C3)C2)CC1` (centres unmarked) [Example E83] gave an IC50 of 0.018 µM.

In turn, `CCc1cc(Nc2ncc(-n3cc(C)cn3)c(Nc3ccccc3P(C)(C)=O)n2)c(OC)cc1N1CCC(N2CCN(CCOc3ccc4c(c3)CN(C3CCC(=O)NC3=O)C4=O)CC2)CC1` (centres unmarked) [Example E68] gave an IC50 above 4 µM.

The compound `CCc1cc(Nc2ncc(Cl)c(Nc3ccccc3P(C)(C)=O)n2)c(OC)cc1N1CCC(N2CCN(CCN(C)c3ccc4c(c3)CN(C3CCC(=O)NC3=O)C4=O)CC2)CC1` (centres unmarked) [Example E223] gave an IC50 of 0.0694 µM.

`CCc1cc(Nc2ncc(-n3ccnn3)c(Nc3ccccc3P(C)(C)=O)n2)c(OC)cc1N1CCC(N2CCN(CCOc3ccc4c(c3)CN(C3CCC(=O)NC3=O)C4=O)CC2)CC1` (centres unmarked) [Example E220] returned an IC50 above 4 µM.

The target of another experiment is T1, BaF3 (EGFR Del19/C797S) (Homo sapiens, UniProt P00533, C797S, cells depend on it, form not given).
T1 construct: BaF3 (EGFR Del19/C797S)|DC|RPMI1640 + 10% FBS
T1 sequence (P00533 with tags, fused parts or gaps DEL746-750/C797S, form open): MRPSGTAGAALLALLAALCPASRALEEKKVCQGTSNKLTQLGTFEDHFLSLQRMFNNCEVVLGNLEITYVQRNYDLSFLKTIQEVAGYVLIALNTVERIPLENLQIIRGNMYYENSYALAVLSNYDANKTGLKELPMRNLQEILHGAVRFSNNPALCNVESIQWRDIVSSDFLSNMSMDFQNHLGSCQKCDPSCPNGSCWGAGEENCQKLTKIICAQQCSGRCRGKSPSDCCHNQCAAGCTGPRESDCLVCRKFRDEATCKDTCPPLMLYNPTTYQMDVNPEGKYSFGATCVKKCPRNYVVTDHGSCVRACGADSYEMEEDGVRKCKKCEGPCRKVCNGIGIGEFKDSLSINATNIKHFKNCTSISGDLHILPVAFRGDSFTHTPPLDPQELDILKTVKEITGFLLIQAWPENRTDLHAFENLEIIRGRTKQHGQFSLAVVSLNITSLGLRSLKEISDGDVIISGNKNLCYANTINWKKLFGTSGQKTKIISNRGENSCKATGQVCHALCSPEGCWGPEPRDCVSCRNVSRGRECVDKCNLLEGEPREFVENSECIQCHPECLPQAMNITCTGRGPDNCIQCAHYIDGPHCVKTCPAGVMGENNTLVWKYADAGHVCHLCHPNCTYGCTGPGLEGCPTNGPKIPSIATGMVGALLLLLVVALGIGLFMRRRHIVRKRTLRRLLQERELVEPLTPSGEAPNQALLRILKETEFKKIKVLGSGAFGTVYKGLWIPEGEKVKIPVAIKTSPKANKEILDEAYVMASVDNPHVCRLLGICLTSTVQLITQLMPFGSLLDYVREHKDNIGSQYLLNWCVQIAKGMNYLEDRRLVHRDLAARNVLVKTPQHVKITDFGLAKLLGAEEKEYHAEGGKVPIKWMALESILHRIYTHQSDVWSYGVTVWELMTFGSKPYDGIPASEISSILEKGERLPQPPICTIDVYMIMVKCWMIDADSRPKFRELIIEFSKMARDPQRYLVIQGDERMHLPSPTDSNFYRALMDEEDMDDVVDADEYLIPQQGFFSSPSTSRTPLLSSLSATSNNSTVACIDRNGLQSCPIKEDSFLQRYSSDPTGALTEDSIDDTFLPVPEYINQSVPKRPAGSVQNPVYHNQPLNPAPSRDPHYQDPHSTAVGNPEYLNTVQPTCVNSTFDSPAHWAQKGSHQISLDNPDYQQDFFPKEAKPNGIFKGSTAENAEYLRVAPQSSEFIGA
The experiment is described as follows: Cell proliferation IC50 assay (Cell Titer GLO), BaF3 DC cells. In kind it is cell-based, mouse. The following applies: Table 6, 72 h. As for the experimental part: as §1, §2, §3
Turning to `CCc1cc(Nc2ncc(-c3cnn(C)c3)c(Nc3ccccc3P(C)(C)=O)n2)c(OC)cc1N1CCC(N2CCN(CCOc3cc(F)cc4c3CN(C3CCC(=O)NC3=O)C4=O)CC2)CC1` (centres unmarked) [Example E194], the IC50 came out at 0.0005 µM.

With `CCc1cc(Nc2ncc(Cl)c(Nc3ccccc3P(C)(C)=O)n2)c(OC)cc1N1CCC(N2CCC3(CC(Oc4cccc5c4CN(C4CCC(=O)NC4=O)C5=O)C3)C2)CC1` (centres unmarked) [Example E83], the half-maximal inhibitory concentration (IC50) turned out to be 0.0012 µM.

In turn, `CCc1cc(Nc2ncc(-n3cc(C)cn3)c(Nc3ccccc3P(C)(C)=O)n2)c(OC)cc1N1CCC(N2CCN(CCOc3ccc4c(c3)CN(C3CCC(=O)NC3=O)C4=O)CC2)CC1` (centres unmarked) [Example E68] came in with an IC50 of 0.0186 µM.

The compound `CCc1cc(Nc2ncc(Cl)c(Nc3ccccc3P(C)(C)=O)n2)c(OC)cc1N1CCC(N2CCN(CCN(C)c3ccc4c(c3)CN(C3CCC(=O)NC3=O)C4=O)CC2)CC1` (centres unmarked) [Example E223] registered an IC50 of 0.0115 µM.

`CCc1cc(Nc2ncc(-n3ccnn3)c(Nc3ccccc3P(C)(C)=O)n2)c(OC)cc1N1CCC(N2CCN(CCOc3ccc4c(c3)CN(C3CCC(=O)NC3=O)C4=O)CC2)CC1` (centres unmarked) [Example E220] showed an IC50 of 0.004 µM.

The next experiment relates to A431. Description: Cell proliferation IC50 assay (Cell Titer GLO), A431 cells. In kind it is cell-based. The following applies: Homo sapiens, A-431, 72 h, read-out: A431 IC50 (nM). As for the experimental part: as §1, §2, §3
On to `CCc1cc(Nc2ncc(Cl)c(Nc3ccccc3P(C)(C)=O)n2)c(OC)cc1N1CCC(N2CCN(CCN(C)c3ccc4c(c3)CN(C3CCC(=O)NC3=O)C4=O)CC2)CC1` (centres unmarked) [Example E223], for which the IC50 was above 4000 nM.

The same experiment, now with this note: Homo sapiens, A-431; Table 6; A431, 72 h; read-out: A431 IC50.
As for `CCc1cc(Nc2ncc(Cl)c(Nc3ccccc3P(C)(C)=O)n2)c(OC)cc1N1CCC(N2Cc3cc(Oc4cccc5c4CN(C4CCC(=O)NC4=O)C5=O)ccc3C2=O)CC1` (centres unmarked) [Example E211], the half-inhibitory concentration (IC50) was above 4000 nM.

Take `CCc1cc(Nc2ncc(-c3cnn(C)c3)c(Nc3ccccc3P(C)(C)=O)n2)c(OC)cc1N1CCC(N2CCN(CCOc3cc(F)cc4c3CN(C3CCC(=O)NC3=O)C4=O)CC2)CC1` (centres unmarked) [Example E194]: the IC50 is 1360 nM.

In the case of `CCc1cc(Nc2ncc(Cl)c(Nc3ccccc3P(C)(C)=O)n2)c(OC)cc1N1CCC(N2CCC3(CC(Oc4cccc5c4CN(C4CCC(=O)NC4=O)C5=O)C3)C2)CC1` (centres unmarked) [Example E83], the IC50 worked out at 1470 nM.

For `CCc1cc(Nc2ncc(-n3cc(C)cn3)c(Nc3ccccc3P(C)(C)=O)n2)c(OC)cc1N1CCC(N2CCN(CCOc3ccc4c(c3)CN(C3CCC(=O)NC3=O)C4=O)CC2)CC1` (centres unmarked) [Example E68], the IC50 is above 4000 nM.

Take `CCc1cc(Nc2ncc(-n3ccnn3)c(Nc3ccccc3P(C)(C)=O)n2)c(OC)cc1N1CCC(N2CCN(CCOc3ccc4c(c3)CN(C3CCC(=O)NC3=O)C4=O)CC2)CC1` (centres unmarked) [Example E220]: the IC50 is above 4000 nM.

The next experiment relates to BaF3 (EGFR WT). The experiment is described as follows: Cell proliferation IC50 assay (Cell Titer GLO), BaF3 WT cells. The following applies: Mus musculus, Ba/F3 EGFR, Table 6, 10 ng/ml EGF, 72 h. In kind it is cell-based. As for the experimental part: as §1, §2, §3
As for `CCc1cc(Nc2ncc(Cl)c(Nc3ccccc3P(C)(C)=O)n2)c(OC)cc1N1CCC(N2Cc3cc(Oc4cccc5c4CN(C4CCC(=O)NC4=O)C5=O)ccc3C2=O)CC1` (centres unmarked) [Example E211], the IC50 was found to be 3.3 µM.

For the compound `CCc1cc(Nc2ncc(-c3cnn(C)c3)c(Nc3ccccc3P(C)(C)=O)n2)c(OC)cc1N1CCC(N2CCN(CCOc3cc(F)cc4c3CN(C3CCC(=O)NC3=O)C4=O)CC2)CC1` (centres unmarked) [Example E194], the midpoint of inhibition, the IC50, lay at 0.535 µM.

Regarding `CCc1cc(Nc2ncc(Cl)c(Nc3ccccc3P(C)(C)=O)n2)c(OC)cc1N1CCC(N2CCC3(CC(Oc4cccc5c4CN(C4CCC(=O)NC4=O)C5=O)C3)C2)CC1` (centres unmarked) [Example E83], it took 1.45 µM to reach half-maximal inhibition (IC50).

As for `CCc1cc(Nc2ncc(-n3cc(C)cn3)c(Nc3ccccc3P(C)(C)=O)n2)c(OC)cc1N1CCC(N2CCN(CCOc3ccc4c(c3)CN(C3CCC(=O)NC3=O)C4=O)CC2)CC1` (centres unmarked) [Example E68], the IC50 is above 4 µM.

The compound `CCc1cc(Nc2ncc(Cl)c(Nc3ccccc3P(C)(C)=O)n2)c(OC)cc1N1CCC(N2CCN(CCN(C)c3ccc4c(c3)CN(C3CCC(=O)NC3=O)C4=O)CC2)CC1` (centres unmarked) [Example E223] displayed an IC50 above 4 µM.

In turn, `CCc1cc(Nc2ncc(-n3ccnn3)c(Nc3ccccc3P(C)(C)=O)n2)c(OC)cc1N1CCC(N2CCN(CCOc3ccc4c(c3)CN(C3CCC(=O)NC3=O)C4=O)CC2)CC1` (centres unmarked) [Example E220] registered an IC50 above 4 µM.
